{"source": "paper PMC6292506", "about": "(Nature structural & molecular biology, 2018)", "key": {"GFP-Cdc14 [1]": {"target": "GFP-Cdc14 (Saccharomyces cerevisiae, UniProt Q00684)", "experiment": "biochemical", "format": "binding"}, "Cdc14": {"target": "Cdc14 (Saccharomyces cerevisiae, UniProt Q00684)", "format": "biochemical", "conditions": "for Dephosphorylation of pTP phosphopeptide by Cdc14: 1 µM Cdc14 (Supplementary Fig. 9d)"}, "Cdc14 with Net1^1-600": {"tested_on": "Cdc14 with Net1^1-600", "format": "biochemical, Saccharomyces cerevisiae", "conditions": "200 nM Net1^1-600; two independent experiments (Fig. 4c)"}, "His6-Net1^1-600": {"target": "T1, His6-Net1^1-600 (S. cerevisiae, UniProt P47035 1-600)", "T1 sequence (looked up)": "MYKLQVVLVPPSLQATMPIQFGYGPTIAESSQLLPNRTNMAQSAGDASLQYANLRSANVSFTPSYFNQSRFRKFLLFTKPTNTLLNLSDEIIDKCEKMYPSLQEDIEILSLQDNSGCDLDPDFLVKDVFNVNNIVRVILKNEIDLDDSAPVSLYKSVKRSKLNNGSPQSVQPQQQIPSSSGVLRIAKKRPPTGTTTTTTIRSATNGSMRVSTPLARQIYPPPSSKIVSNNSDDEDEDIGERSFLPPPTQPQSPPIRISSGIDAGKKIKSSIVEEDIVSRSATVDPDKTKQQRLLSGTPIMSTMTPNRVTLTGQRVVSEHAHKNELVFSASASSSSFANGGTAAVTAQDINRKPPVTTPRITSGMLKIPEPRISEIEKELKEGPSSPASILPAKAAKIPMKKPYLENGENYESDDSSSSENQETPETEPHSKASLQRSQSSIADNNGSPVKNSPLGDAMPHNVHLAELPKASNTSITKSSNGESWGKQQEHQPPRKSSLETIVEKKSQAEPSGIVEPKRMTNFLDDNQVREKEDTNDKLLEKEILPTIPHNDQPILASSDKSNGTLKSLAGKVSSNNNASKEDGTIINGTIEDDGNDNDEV", "experiment": "pull-down"}, "GFP-Cdc14 [2]": {"target": "T2, GFP-Cdc14 (S. cerevisiae, UniProt Q00684 1-551)", "T2 sequence (looked up)": "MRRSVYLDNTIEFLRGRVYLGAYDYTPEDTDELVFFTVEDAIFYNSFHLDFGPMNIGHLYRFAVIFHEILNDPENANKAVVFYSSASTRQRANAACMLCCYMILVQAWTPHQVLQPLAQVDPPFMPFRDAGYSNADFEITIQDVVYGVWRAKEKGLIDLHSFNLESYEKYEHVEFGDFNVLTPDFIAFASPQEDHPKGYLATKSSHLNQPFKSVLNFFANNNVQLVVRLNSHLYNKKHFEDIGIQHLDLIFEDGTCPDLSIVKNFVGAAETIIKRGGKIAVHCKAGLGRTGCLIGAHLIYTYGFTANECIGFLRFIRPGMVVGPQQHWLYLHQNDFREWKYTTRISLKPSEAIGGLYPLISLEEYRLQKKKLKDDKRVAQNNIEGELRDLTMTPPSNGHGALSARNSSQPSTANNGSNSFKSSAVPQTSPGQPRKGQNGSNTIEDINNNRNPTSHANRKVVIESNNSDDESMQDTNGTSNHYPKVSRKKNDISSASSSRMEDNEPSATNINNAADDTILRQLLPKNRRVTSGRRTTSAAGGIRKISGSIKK", "experiment": "MST"}}, "note": "Where a SMILES comes first, the peptide text is derived from it.", "data": [{"molecule": "CC(C)C[C@H](NC(=O)[C@H](CC(C)C)NC(=O)[C@@H]1CCCN1C(=O)[C@H](C)NC(=O)[C@H](CC(N)=O)NC(=O)[C@H](CCCCN)NC(=O)[C@H](Cc1ccccc1)NC(=O)[C@H](CO)NC(=O)[C@H](CCCCN)NC(=O)[C@@H](NC(=O)[C@@H](NC(=O)[C@H](CO)NC(=O)[C@@H]1CCCN1)[C@@H](C)O)[C@@H](C)O)C(=O)N[C@@H](C)C(=O)N1CCC[C@H]1C(=O)N1CCC[C@H]1C(=O)O", "note": "[Sic1 peptide] (H-PSTTKSFKNAPLLAPP-OH)", "values": [{"measurement": "Kd", "setting": "GFP-Cdc14 [1]", "result": 32.2, "unit": "µM"}]}, {"molecule": "FTDVAAGNYPATPPPH-TSPLGpTPLAAFNGLTSPQRSPFPKSSVK [AxG…pTP control peptide]", "values": [{"measurement": "Dephosphorylation of pTP phosphopeptide by Cdc14", "setting": "Cdc14", "result": "almost undetectable"}]}, {"molecule": "FTDVPALNYPATPPPH-TSPLGpSPLAAFNGLTSPQRSPFPKSSVK [PxL…pSPxAA peptide]", "values": [{"measurement": "Behaviour at higher substrate concentrations", "setting": "Cdc14; pSPxAA phosphopeptide, 100 nM Cdc14, above 50 μM (Fig. 6a)", "result": "apparent substrate inhibition"}]}, {"molecule": "FTDVPALNYPATPPPHTSPLGpTPLAAFNGLTSPQRSPFP-KSSVK [PxL…pTP peptide]", "values": [{"measurement": "Dephosphorylation of pTP phosphopeptide by Cdc14", "setting": "Cdc14", "result": "substantially enhanced"}]}, {"molecule": "YVPAPAPTTPLNFDHP [scrambled peptide]", "values": [{"measurement": "Effect of peptide on inhibition of Cdc14 p-NPP hydrolysis by Net1", "setting": "Cdc14 with Net1^1-600", "result": "observed to a much lesser extent"}]}, {"molecule": "GST-Cdc14 (enzyme, S. cerevisiae, UniProt Q00684 1-551, looked up) MRRSVYLDNTIEFLRGRVYLGAYDYTPEDTDELVFFTVEDAIFYNSFHLDFGPMNIGHLYRFAVIFHEILNDPENANKAVVFYSSASTRQRANAACMLCCYMILVQAWTPHQVLQPLAQVDPPFMPFRDAGYSNADFEITIQDVVYGVWRAKEKGLIDLHSFNLESYEKYEHVEFGDFNVLTPDFIAFASPQEDHPKGYLATKSSHLNQPFKSVLNFFANNNVQLVVRLNSHLYNKKHFEDIGIQHLDLIFEDGTCPDLSIVKNFVGAAETIIKRGGKIAVHCKAGLGRTGCLIGAHLIYTYGFTANECIGFLRFIRPGMVVGPQQHWLYLHQNDFREWKYTTRISLKPSEAIGGLYPLISLEEYRLQKKKLKDDKRVAQNNIEGELRDLTMTPPSNGHGALSARNSSQPSTANNGSNSFKSSAVPQTSPGQPRKGQNGSNTIEDINNNRNPTSHANRKVVIESNNSDDESMQDTNGTSNHYPKVSRKKNDISSASSSRMEDNEPSATNINNAADDTILRQLLPKNRRVTSGRRTTSAAGGIRKISGSIKK", "values": [{"measurement": "binding result", "setting": "His6-Net1^1-600", "result": "binds"}]}, {"molecule": "FTDVPALNYPATPPPH", "note": "[Cbk1-derived PxL motif peptide (16-mer)]", "values": [{"measurement": "Kd", "setting": "GFP-Cdc14 [2]", "result": 6.1, "unit": "µM"}]}, {"molecule": "Ac-KGKLILSSVPPLPYDE-NH2", "note": "[Kar9-derived PxL motif peptide]", "values": [{"measurement": "Kd", "setting": "GFP-Cdc14 [2]", "result": 6, "unit": "µM"}]}]}
